Measured values: patent publication US7786043B2, “2-(pyridin-2-yl)-pyrimidines and their use for controlling harmful fungi” (BASF Aktiengesellschaft, priority 2004, dated 2010)

Columns and labels:
Format in all cases: in vivo
Alternaria solani = assay: Use Example 1: activity against early blight caused by Alternaria solani (tomato plants); settings: 250 ppm, tomato plants sprayed one day before infection, rated after 5 days; untreated plants 90% infected
[1] = system: Erysiphe [syn. Blumeria] graminis forma specialis. tritici; assay: Use Example 3: activity against mildew of wheat caused by Erysiphe [syn. Blumeria] graminis forma specialis tritici; settings: 250 ppm, wheat seedlings, protective, rated after 7 days; untreated plants 90% infected
Procedure: (§1) For the use examples 1 to 5 the active compounds were prepared separately as a stock solution with 0.25% by weight of active compound in acetone or DMSO. 1% by weight of the emulsifier Wettol® EM 31 (wetting agent having emulsifying and dispersing action based on ethoxylated alkylphenols) was added to this solution, and the solution was diluted with water to the desired concentration.
Leaves of potted wheat seedlings of the cultiva “Kanzler” were sprayed to runoff point with an aqueous suspension having the concentration of active compounds stated below. 24 h after the spray coating had dried on, the leaves were dusted with the spores of mildew of wheat (Erysiphe [syn. Blumeria] graminis form a specialis. tritici). The plants were then placed in a greenhouse at temperatures between 20 and 24° C. and at 60-90% relative atmospheric humidity. After 7 days, the extent of the fungal infection was determined visually by the infected leaf area.

Plasmopara viticola = assay: Use Example 4: activity against peronospora of grapevines caused by Plasmopara viticola; settings: 63 ppm, potted grapevines, protective; untreated plants 90% infected
Procedure: as §1
Leaves of potted grapevines were sprayed to runoff point with an aqueous suspension having the concentration of active compounds stated below. The next day, the undersides of the leaves were inoculated with an aqueous sporangia suspension of Plasmopara viticola. The plants were then initially placed in a water-vapor-saturated chamber for 48 h and then in a greenhouse at temperatures between 20 and 30° C. After this period of time, the plants were, to promote sporangial eruption, again placed in the water-vapor-saturated chamber for 16 h. The extent of the development of the infection on the undersides of the leaves was then determined.

Puccinia recondita = assay: Use Example 5: curative activity against brown rust of wheat caused by Puccinia recondita; settings: 250 ppm, wheat seedlings, curative (sprayed one day after inoculation), 7 days; untreated plants 90% infected
Procedure: as §1
Leaves of potted wheat seedlings of the cultivar “Kanzler” were inoculated with a spore suspension of brown rust (Puccinia recondita). The pots were then placed in a chamber at high atmospheric humidity (90 to 95%) and 20 to 22° C. for 24 hours. During this time, the spores germinated and the germ tubes penetrated into the leaf tissue. The next day, the infected plants were sprayed to runoff point with an aqueous suspension having the active compound concentration stated below. The suspension or emulsion had been prepared as described above. After the spray coating had dried, the test plants were cultivated in a greenhouse at temperatures between 20 and 22° C. and at 65 to 70% relative atmospheric humidity for 7 days. The extent of the rust fungus development on the leaves was then determined.

Botrytis cinerea = assay: Use Example 2: activity against gray mold on bell pepper leaves caused by Botrytis cinerea, protective application; settings: 250 ppm, rated after 5 days, untreated plants 90% infected
Procedure: as §1
Bell pepper leaves of the cultiva “Neusiedler Ideal Elite” were, after 2 to 3 leaves had become well developed, sprayed to runoff point with an aqueous suspension having the concentration of active compounds stated below. The next day, the treated plants were inoculated with an aqueous spore suspension of Botrytis cinerea in a 2% aqueous biomalt solution having a density of 1.7×10^6 spores/ml. The plants were then placed in a climatized chamber at temperatures between 22 and 24° C. and at high atmospheric humidity. After 5 days, the extent of the fungal infection was determined visually by the infected leaf area.

Row | Structure (SMILES) | infection (Alternaria solani) | infection (infected leaf area) [1] [%] | infection (Plasmopara viticola) | infection (rust fungus development) (Puccinia recondita) [%] | infection (infected leaf area) (Botrytis cinerea)
1 | Cc1ccc(-c2ncc3c(n2)CCCC3)nc1-c1ccc(F)cc1 [2-(5-methyl-6-(4-fluorophenyl)pyridin-2-yl)-5,6,7,8-tetrahydroquinazoline, reference compound] | 80% | 80 | 70% | 50 | 
2 | Cc1ccc(-c2ncc3c(n2)CCCCC3)nc1-c1ccccc1 [Example 1, 2-(5-methyl-6-phenylpyridin-2-yl)-6,7,8,9-tetrahydro-5H-cycloheptapyrimidine] | no infection |  |  |  | 
3 | Cc1ccc(-c2ncc3c(n2)CCCCC3)nc1-c1ccccc1 [Example 6] |  |  |  |  | no infection
4 | Fc1ccc(-c2cccc(-c3ncc4c(n3)CCCCC4)n2)cc1 [Example 7] | no infection | 20 | no infection |  | no infection
5 | Cc1ccc(-c2ncc3c(n2)CCCCC3)nc1-c1ccc(F)cc1 [Example 9] | no infection |  |  | 20 | 
6 | c1ccc(-c2cccc(-c3ncc4c(n3)CCCCCC4)n2)cc1 [Example 11] | no infection |  |  |  | no infection
